From patent publication US8258081B2, “Use of C3 to C14 aliphatic aldehydes, ketones and primary and secondary C3 to C7 aliphatic alcohols to inhibit sprouting of potato tubers” (Washington State University Research Foundation, priority 2007, dated 2012)
One block for each compound: values may come before it.

Tests used:
potato tubers [1] = assay: Residues and metabolites of 3N2 and T2N in treated potato tubers; details: for persistence of metabolite residue: tubers treated with 0.75 mmol/kg parent compound, 9° C., 28 days; for metabolites formed in tubers: tubers treated with 0.75 mmol/kg for 24 h, stored at 9° C. up to 28 days
Method: FIG. 1. Levels of 3-nonen-2-one, 2-nonanone, and 2-nonanol in tubers initially treated with 0.75 mmol/kg 3-nonen-2-one and stored at 9° C. Content of residues in the outer 20 mm of tuber.
FIG. 2. Levels of trans-2-nonenal, nonanal, trans-2-nonen-1-ol and 1-nonanol in tubers initially treated with 0.75 mmol/kg trans-2-nonenal and stored at 9° C. Content of residues in the outer 20 mm of tuber.
(§1) The objective of this study was to determine the metabolites of 3-nonen-2-one (3N2) and trans-2-nonenal (T2N), which are two examples of α,β-unsaturated aldehydes and ketones that inhibit sprouting in potatoes as described in U.S. Pat. No. 6,855,669. Potato tubers were treated with 3N2 or T2N (0.75 mmol/kg tuber) for 24 h in a closed chamber. The chemicals were volatilized from filter paper inside the chamber. The tubers were removed from the treatment chamber and placed at 9° C. for up to 28 days.
Samples were taken for analysis of residues and metabolite identification over the 28-day storage period.

potato tubers [2] = assay: Sprout inhibition by 3N2, 2-nonanone and 2-nonanol, sprout fresh weight 21 days after treatment at 18° C.; type: in vivo; details: for % Inhibition of sprouting: 24 h treatment; for inhibition of sprout growth relative to non-treated controls: 0.5 and 0.75 mmol/kg
Method: as §1
Tubers were treated separately as described in Example 1 with 0, 0.25, 0.5, and 0.75 mmol/kg of 3N2,2-nonanone, and 2-nonanol. The treated tubers were placed at 18° C. and sprout fresh weights were measured 21 days after treatment.

potato tubers [3] = assay: Sprout inhibition by T2N and its metabolites, sprout fresh weight 21 days after treatment at 19° C.; type: in vivo; details: for % Inhibition of sprouting: 24 h treatment
Method: as §1
The objective of this study was to determine the extent to which nonanal, 1-nonanol, and trans-2-nonene-1-ol (metabolites of T2N) inhibit sprouting of potato tubers relative to T2N. Tubers were treated separately with 0.25, 0.5 and 0.75 mmol/kg of T2N, nonanal, 1-nonanol, and trans-2-nonene-1-ol for 24 h as described in Example 1. The treated tubers were placed at 19° C. and sprout fresh weights were measured 21 days after treatment. T2N inhibited sprouting (100%) at all concentrations. Nonanal and 1-nonanol inhibited sprouting by 13 to 51%, depending on the compound and the concentration that was used.

potatoes = details: with two applications, table-stock and processing potatoes; cited from earlier work
potato tubers [4] = assay: Sprout inhibition by C5 to C7 alcohols, sprout fresh weight 21 days after treatment at 18° C.; type: in vivo; details: 24 h treatment
Method: as §1
The objective of this study was to determine the extent to which 1-heptanol, 1-hexanol, 2-heptanol, trans-2-hepten-1-ol, trans-2-hexen-1-ol and 1-pentanol (C5 to C7 alcohols) inhibit sprouting of potato tubers. Tubers were treated separately with 0.25, 0.5, 0.75 or 1 mmol/kg of each alcohol for 24 h as described in Example 1. The treated tubers were placed at 18° C. and sprout fresh weights were measured 21 days after treatment. […] C7 alcohols inhibited sprouting by about 50 to about 100%, depending on the precise treatment.

Premier Russet tubers = assay: Long term sprout inhibition during storage at 9° C.; type: in vivo, potato; details: 0.75 mmol/kg; for duration of sprout suppression: re-applied between second and third month
Method: FIG. 4. Effect of trans-2-hexen-1-ol, 2-heptanol, decanal and 3-decanone on sprouting in Premier Russet tubers during long term storage at 9° C.
The objective of this study was to determine the extent to which trans-2-hexen-1-ol, 2-heptanol, decanal, and 3-decanone inhibit sprouting during extended storage under typical commercial storage conditions. Premier Russet tubers were treated separately with 0.75 mmol/kg of each compound in 190 L plastic barrels at room temperature. Chemicals were volatilized from filter paper within the barrels which were sealed for 24 hours during application. Tubers were then stored at 9° C. and sampled monthly to determine the amount of sprouting on a per tuber basis. All treatments were re-applied between the second and third month of storage. […] 2-heptanol and decanal suppressed sprouting for 114 days (about 4 months of control). 3-decanone suppressed sprouting for 83 days.

Russet Burbank tubers = assay: Sprout inhibition by mixtures of 3N2 and 2-nonanone, sprout fresh weight 21 days after treatment at 22° C.; type: in vivo, potato
Method: FIG. 3. Effects of 3-nonen-2-one (3N2) in various combinations with 2-nonanone on sprouting of Russet Burbank tubers. The compounds were applied as described in Example 1. Tubers were treated for 24 h, removed from treatment chambers, and placed at 22° C. to sprout for 3 weeks. Sprout fresh weight is expressed as a percentage of control (non-treated), which were 100% sprouted.
as §1
The objective of this study was to determine the efficacy of mixtures of 3N2 and its metabolite, 2-nonanone, on sprout inhibition. Tubers were treated as described in Example 1 with 0 to 0.75 mmol/kg of 3N2 combined factorially with 0 to 0.75 mmol/kg of 2-nonanone. The treated tubers were placed at 22° C. and sprout fresh weights were measured 21 days after treatment. […]

persistence of metabolite residue (potato tubers [1]): most persistent
Structure (SMILES): CCCCCCCC(C)O (stereo not drawn) [2-nonanol]
% Inhibition of sprouting (potato tubers [2]; 0.25 mmol/kg tubers): 65.1%
% Inhibition of sprouting (potato tubers [2]; 0.5 mmol/kg tubers): 79.8%
% Inhibition of sprouting (potato tubers [2]; 0.75 mmol/kg tubers): 72.9%

persistence of metabolite residue (potato tubers [1]): most persistent metabolite
Structure (SMILES): CCCCCC/C=C/CO [trans-2-nonen-1-ol]
% Inhibition of sprouting (potato tubers [3]; 0.25 mmol/kg tubers): 8.9%
% Inhibition of sprouting (potato tubers [3]; 0.5 mmol/kg tubers): 62.8%
% Inhibition of sprouting (potato tubers [3]; 0.75 mmol/kg tubers): 31.6%

Structure (SMILES): CCCCCCCCCO [1-nonanol]
% Inhibition of sprouting (potato tubers [3]; 0.25 mmol/kg tubers): 28.3%
% Inhibition of sprouting (potato tubers [3]; 0.5 mmol/kg tubers): 24.5%
% Inhibition of sprouting (potato tubers [3]; 0.75 mmol/kg tubers): 50.9%

Structure (SMILES): CC(C)OC(=O)Nc1cccc(Cl)c1 [CIPC, chlorpropham]
duration of sprout inhibition / extended storage life (potatoes): up to 1 year

Structure (SMILES): CCCCCCCO [1-heptanol]
% Inhibition of sprouting (potato tubers [4]; 0.25 mmol/kg tubers): 51.8%
% Inhibition of sprouting (potato tubers [4]; 0.50 mmol/kg tubers): 94.0%
% Inhibition of sprouting (potato tubers [4]; 0.75 mmol/kg tubers): 95.7%

Structure (SMILES): CCCCCCCCC=O [nonanal]
% Inhibition of sprouting (potato tubers [3]; 0.25 mmol/kg tubers): 13.2%
% Inhibition of sprouting (potato tubers [3]; 0.5 mmol/kg tubers): 32.1%
% Inhibition of sprouting (potato tubers [3]; 0.75 mmol/kg tubers): 17.0%

Structure (SMILES): CCCCCC(C)O (stereo not drawn) [2-heptanol]
% Inhibition of sprouting (potato tubers [4]; 0.25 mmol/kg tubers): 49.4%
% Inhibition of sprouting (potato tubers [4]; 0.50 mmol/kg tubers): 89.0%
% Inhibition of sprouting (potato tubers [4]; 0.75 mmol/kg tubers): 97.7%
duration of sprout suppression (Premier Russet tubers): 114 days

Structure (SMILES): CCCC/C=C/CO [trans-2-hepten-1-ol]
% Inhibition of sprouting (potato tubers [4]; 0.25 mmol/kg tubers): 91.7%
% Inhibition of sprouting (potato tubers [4]; 0.50 mmol/kg tubers): 98.7%
% Inhibition of sprouting (potato tubers [4]; 0.75 mmol/kg tubers): 99.4%

Structure (SMILES): CCCCCC/C=C/C=O [trans-2-nonenal, reference compound]
metabolites formed in tubers (potato tubers [1]): trans-2-nonen-1-ol, nonanal and 1-nonanol
% Inhibition of sprouting (potato tubers [3]; 0.25 mmol/kg tubers): 100%
% Inhibition of sprouting (potato tubers [3]; 0.5 mmol/kg tubers): 100%
% Inhibition of sprouting (potato tubers [3]; 0.75 mmol/kg tubers): 100%
inhibition of sprouting relative to untreated control (potato tubers [3]; over all concentrations (0.25, 0.5 and 0.75 mmol/kg)): 100%

Structure (SMILES): CCC/C=C/CO [trans-2-hexen-1-ol]
% Inhibition of sprouting (potato tubers [4]; 0.25 mmol/kg tubers): 96%
% Inhibition of sprouting (potato tubers [4]; 0.50 mmol/kg tubers): 100.0%
% Inhibition of sprouting (potato tubers [4]; 0.75 mmol/kg tubers): 100.0%
damage to the tuber periderm (Premier Russet tubers; after 83 days): excessive damage to the periderm
sprout control (Premier Russet tubers; up to 83 days): sprouts were effectively controlled up to this point

Structure (SMILES): CCCCCCO [1-hexanol]
% Inhibition of sprouting (potato tubers [4]; 0.25 mmol/kg tubers): 36.6%
% Inhibition of sprouting (potato tubers [4]; 0.50 mmol/kg tubers): 61.3%
% Inhibition of sprouting (potato tubers [4]; 0.75 mmol/kg tubers): 71.9%

Structure (SMILES): CCCCCCCC(=O)CC [3-decanone]
duration of sprout suppression (Premier Russet tubers): 83 days

Structure (SMILES): CCCCCCCC(C)=O [2-nonanone]
% Inhibition of sprouting (potato tubers [2]; 0.25 mmol/kg tubers): 77.22%
% Inhibition of sprouting (potato tubers [2]; 0.5 mmol/kg tubers): 97.9%
% Inhibition of sprouting (potato tubers [2]; 0.75 mmol/kg tubers): 98.8%
inhibition of sprout growth relative to non-treated controls (potato tubers [2]): substantially inhibited sprout growth
Sprout growth (fresh weight) as % of non-treated tubers (Russet Burbank tubers; average of 0.5 and 0.75 mmol/kg 2-nonanone): 58%

metabolites formed in tubers (potato tubers [1]): 2-nonanone and 2-nonanol
Structure (SMILES): CCCCCC=CC(C)=O [3-nonen-2-one, reference compound]
% Inhibition of sprouting (potato tubers [2]; 0.25 mmol/kg tubers): 99.6%
% Inhibition of sprouting (potato tubers [2]; 0.5 mmol/kg tubers): 99.9%
% Inhibition of sprouting (potato tubers [2]; 0.75 mmol/kg tubers): 99.9%
inhibition of sprout growth relative to non-treated controls (potato tubers [2]): substantially inhibited sprout growth
Sprout growth (fresh weight) as % of non-treated tubers (Russet Burbank tubers; 0.75 mmol/kg 3N2 applied alone): 9%

Structure (SMILES): CCCCCCCCCC=O [decanal]
duration of sprout suppression (Premier Russet tubers): 114 days

Structure (SMILES): CCCCCO [1-pentanol]
% Inhibition of sprouting (potato tubers [4]; 0.25 mmol/kg tubers): 7.5%
% Inhibition of sprouting (potato tubers [4]; 0.50 mmol/kg tubers): 32.5%
% Inhibition of sprouting (potato tubers [4]; 0.75 mmol/kg tubers): 45.8%
